Measurements published in patent publication US8063098B2, “GlyT1 receptor antagonists” (Hoffmann-La Roche Inc., priority 2008, dated 2011).

Molecular target: T1, mGlyT-1b (Mus musculus, UniProt P28571)
T1 construct: host or cells: Flp-in-CHO
T1 sequence (P28571 1-651 isoform P28571-2): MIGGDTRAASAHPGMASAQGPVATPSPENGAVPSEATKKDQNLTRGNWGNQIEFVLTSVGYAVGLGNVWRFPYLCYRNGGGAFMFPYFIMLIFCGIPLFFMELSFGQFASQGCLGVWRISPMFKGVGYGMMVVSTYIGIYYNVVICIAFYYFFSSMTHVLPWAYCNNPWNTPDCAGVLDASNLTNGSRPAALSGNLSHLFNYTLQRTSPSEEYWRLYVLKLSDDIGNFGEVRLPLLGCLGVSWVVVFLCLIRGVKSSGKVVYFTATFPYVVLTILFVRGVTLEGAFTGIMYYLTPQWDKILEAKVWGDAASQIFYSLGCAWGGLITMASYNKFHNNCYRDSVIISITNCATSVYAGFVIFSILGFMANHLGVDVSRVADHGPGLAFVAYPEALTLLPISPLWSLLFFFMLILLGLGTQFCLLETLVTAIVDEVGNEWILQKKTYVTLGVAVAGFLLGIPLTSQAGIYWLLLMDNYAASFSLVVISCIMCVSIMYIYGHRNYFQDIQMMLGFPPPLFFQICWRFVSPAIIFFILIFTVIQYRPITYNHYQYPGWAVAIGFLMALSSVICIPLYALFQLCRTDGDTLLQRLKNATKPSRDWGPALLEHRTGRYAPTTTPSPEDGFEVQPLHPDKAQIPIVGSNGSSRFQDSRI
Assay: Glycine uptake inhibition assay (mGlyT-1b), [3H]-glycine uptake in Flp-in-CHO cells
Type: cell-based
Details: Flp-in-CHO cells stably transfected with mGlyT1b cDNA, 20 min at 22° C. preincubation
Description: Nutrient mixture F-12 (Gibco Life-technologies), fetal bovine serum (FBS) 5%, (Gibco life technologies), Penicillin/Streptomycin 1% (Gibco life technologies), Hygromycin 0.6 mg/ml (Gibco life technologies), Glutamine 1 mM Gibco life technologies) • Uptake buffer (UB): 150 mM NaCl, 10 mM Hepes-Tris, pH 7.4, […], 2.5 mM KCl, 2.5 mM MgSO4, 10 mM (+) D-glucose. • Flp-in™-CHO (Invitrogen Cat n° R758-07) cells stably transfected with mGlyT1b cDNA. Glycine Uptake Inhibition Assay (mGlyT-1b)
On day 1 mammalian cells, (Flp-in™-CHO), transfected with mGlyT-1b cDNA, were plated at the density of 40,000 cells/well in complete F-12 medium, without hygromycin in 96-well culture plates. On day 2, the medium was aspirated and the cells were washed twice with uptake buffer (UB). The cells were then incubated for 20 min at 22° C. with either (i) no potential competitor, (ii) 10 mM non-radioactive glycine, (iii) a concentration of a potential inhibitor. A range of concentrations of the potential inhibitor was used to generate data for calculating the concentration of inhibitor resulting in 50% of the effect (e.g. IC50, the concentration of the competitor inhibiting glycine uptake of 50%). A solution was then immediately added containing [^3H]-glycine 60 nM (11-16 Ci/mmol) and 25 μM non-radioactive glycine. The plates were incubated with gentle shaking and the reaction was stopped by aspiration of the mixture and washing (three times) with ice-cold UB. The cells were lysed with scintillation liquid, shaken 3 hours and the radioactivity in the cells was counted using a scintillation counter.

| SMILES | IC50 [µM] |
| --- | --- |
| CSc1cc(C(F)(F)F)ccc1C(=O)NC(c1ccc(F)cc1)C1(N2CCCC2)CCC1 (stereo not shown) [Example 24, N-[(4-Fluoro-phenyl)-(1-pyrrolidin-1-yl-cyclobutyl)-methyl]-2-methylsulfanyl-4-trifluoromethyl-benzamide] | 0.02 |
| COc1cc(C(F)(F)F)cc(SC)c1C(=O)NC(c1ccccc1)C1(N2C3CCC2COC3)CCC1 (racemic) [Example 71, (rac)-2-Methoxy-6-methylsulfanyl-N-{[1-(3-oxa-8-aza-bicyclo[3.2.1]oct-8-yl)-cyclobutyl]-phenyl-methyl}-4-trifluoromethyl-benzamide] | 0.0521 |
| CSc1cc(C(F)(F)F)cc(C(F)(F)F)c1C(=O)NC(c1ccccc1)C1(N2CCCC2)CC1 (stereo not shown) [Example 6, 2-Methylsulfanyl-N-[phenyl-(1-pyrrolidin-1-yl-cyclopropyl)-methyl]-4,6-bis-trifluoromethyl-benzamide] | 0.0683 |
| CSc1cc(C(F)(F)F)ccc1C(=O)NC(c1ccccc1)C1(N2CCCC2)CCC1 (single isomer, unassigned; (+)) [Example 35, (+)-2-Methylsulfanyl-N-[phenyl-(1-pyrrolidin-1-yl-cyclobutyl)-methyl]-4-trifluoromethyl-benzamide] | 0.0098 |
| COc1cc(Cl)ccc1C(=O)NC(c1ccccc1)C1(N2CCCC2)CCC1 (stereo not shown) [Example 47, 4-Chloro-2-methoxy-N-[phenyl-(1-pyrrolidin-1-yl-cyclobutyl)-methyl]-benzamide] | 0.0724 |
| COc1cc(C(F)(F)F)cc(C(F)(F)F)c1C(=O)NC(c1ccccc1)C1(N2CCCC2)CCC1 (stereo not shown) [Example 14, 2-Methoxy-N-[phenyl-(1-pyrrolidin-1-yl-cyclobutyl)-methyl]-4,6-bis-trifluoromethyl-benzamide] | 0.0455 |
| CCc1cc(C(F)(F)F)cc(C(F)(F)F)c1C(=O)NC(c1ccccc1)C1(N2CCCC2)CCC1 (stereo not shown) [Example 37] | 0.0398 |
| CSc1cc(C(F)(F)F)ccc1C(=O)NC(c1ccccc1)C1(N2CCCC2)CCC1 (stereo not shown) [Example 16, 2-Methylsulfanyl-N-[phenyl-(1-pyrrolidin-1-yl-cyclobutyl)-methyl]-4-trifluoromethyl-benzamide] | 0.0134 |
| COc1cc(C(F)(F)F)cc(SC)c1C(=O)NC(c1ccccc1)C1(N2CCCC2)CCC1 (stereo not shown) [Example 12, 2-Methoxy-6-methylsulfanyl-N-[phenyl-(1-pyrrolidin-1-yl-cyclobutyl)-methyl]-4-trifluoromethyl-benzamide] | 0.0112 |
| COc1cc(C(F)(F)F)cc(SC)c1C(=O)NC(c1ccccc1)C1(N2CCCC2)CCC1 (single isomer, unassigned; (+)) [Example 33, (+)-2-Methoxy-6-methylsufanyl-N-[phenyl-(1-pyrrolidin-1-yl-cyclobutyl)-methyl]-4-trifluoromethyl-benzamide] | 0.00847 |
| O=C(NC(c1ccccc1)C1(N2CCCC2)CCC1)c1ccc(Cl)cc1Cl (stereo not shown) [Example 43, 2,4-Dichloro-N-[phenyl-(1-pyrrolidin-1-yl-cyclobutyl)-methyl]-benzamide] | 0.0669 |
| COc1cc(C(F)(F)F)cc(SC)c1C(=O)NC(c1ccccc1)C1(N2CC3(COC3)C2)CCC1 (stereo not shown) [Example 75, 2-Methoxy-6-methylsulfanyl-N-{[1-(2-oxa-6-aza-spiro[3.3]hept-6-yl)-cyclobutyl]-phenyl-methyl}-4-trifluoromethyl-benzamide] | 0.0261 |
| COc1cc(F)cc(SC)c1C(=O)NC(c1ccccc1)C1(N2CCCC2)CCC1 (stereo not shown) [Example 11, 4-Fluoro-2-Methoxy-6-methylsulfanyl-N-[phenyl-(1-pyrrolidin-1-yl-cyclobutyl)-methyl]-benzamide] | 0.0122 |
| CSc1cc(C(F)(F)F)ccc1C(=O)NC(c1ccccc1)C1(N(C)C)CCC1 (stereo not shown) [Example 50, N-[(1-Dimethylamino-cyclobutyl)-phenyl-methyl]-2-methylsulfanyl-4-trifluoromethyl-benzamide] | 0.01 |
| CSc1cc(C(F)(F)F)ccc1C(=O)NC(c1ccccc1)C1(N2CC3(COC3)C2)CCC1 (stereo not shown) [Example 74, 2-Methylsulfanyl-N-{[1-(2-oxa-6-aza-spiro[3.3]hept-6-yl)-cyclobutyl]-phenyl-methyl}-4-trifluoromethyl-benzamide] | 0.0101 |
| CSc1cc(C(F)(F)F)cc(C(F)(F)F)c1C(=O)NC(c1ccccc1)C1(N2CCCC2)CCC1 (stereo not shown) [Example 9, 2-Methylsulfanyl-N-[phenyl-(1-pyrrolidin-1-yl-cyclobutyl)-methyl]-4,6-bis-trifluoromethyl-benzamide] | 0.0295 |
| CSc1cc(C(F)(F)F)ccc1C(=O)NC(c1ccccc1)C1(N2CCN(C3CC3)CC2)CCC1 (stereo not shown) [Example 72, N-{[1-(4-Cyclopropyl-piperazin-1-yl)-cyclobutyl]-phenyl-methyl}-2-methylsulfanyl-4-trifluoromethyl-benzamide] | 0.0494 |
| COc1cc(C(F)(F)F)cc(SC)c1C(=O)NC(c1ccccc1)C1(N2CCN(C3CC3)CC2)CCC1 (stereo not shown) [Example 73, N-{[1-(4-Cyclopropyl-piperazin-1-yl)-cyclobutyl]-phenyl-methyl}-2-methoxy-6-methylsulfanyl-4-trifluoromethyl-benzamide] | 0.0308 |

The next lines start with the values.

| IC50 [µM] | SMILES |
| --- | --- |
| 0.0275 | CSc1cc(C(F)(F)F)ccc1C(=O)NC(c1ccccc1)C1(N2CCCCC2)CCC1 (stereo not shown) [Example 48, 2-Methylsulfanyl-N-[phenyl-(1-piperidin-1-yl-cyclobutyl)-methyl]-4-trifluoromethyl-benzamide] |
| 0.0181 | CSc1cc(C(F)(F)F)cc(C(F)(F)F)c1C(=O)NC(c1ccccc1)C1(N2CCCC2)CCC1 (single isomer, unassigned; (-)) [Example 31, (−)-2-Methylsulfanyl-N-[phenyl-(1-pyrrolidin-1-yl-cyclobutyl)-methyl]-4,6-bis-trifluoromethyl-benzamide] |
| 0.0095 | CSc1cc(C(F)(F)F)cc(O)c1C(=O)NC(c1ccccc1)C1(N2CCCC2)CCC1 (stereo not shown) [Example 69, 2-Hydroxy-6-methylsulfanyl-N-[phenyl-(1-pyrrolidin-1-yl-cyclobutyl)-methyl]-4-trifluoromethyl-benzamide] |
| 0.0597 | CSc1cc(C(F)(F)F)ccc1C(=O)NC(c1ccc(Cl)cc1)C1(N2CCCC2)CCC1 (stereo not shown) [Example 36, N-[(4-Chloro-phenyl)-(1-pyrrolidin-1-yl-cyclobutyl)-methyl]-methylsulfanyl-4-trifluoromethyl-benzamide] |
| 0.0091 | CCc1cc(C(F)(F)F)ccc1C(=O)NC(c1ccccc1)C1(N2CCCC2)CCC1 (stereo not shown) [Example 68, 2-Ethyl-N-[phenyl-(1-pyrrolidin-1-yl-cyclobutyl)-methyl]-4-trifluoromethyl-benzamide] |
| 0.0142 | COc1cc(C(F)(F)F)cc(SC)c1C(=O)NC(c1ccccc1)C1(N(C)C)CCC1 (stereo not shown) [Example 51, N-[(1-Dimethylamino-cyclobutyl)-phenyl-methyl]-2-methoxy-6-methylsulfanyl-4-trifluoromethyl-benzamide] |
| 0.0148 | Cc1cc(C(F)(F)F)ccc1C(=O)NC(c1ccccc1)C1(N2CCCC2)CCC1 (stereo not shown) [Example 41, 2-Methyl-N-[phenyl-(1-pyrrolidin-1-yl-cyclobutyl)-methyl]-4-trifluoromethyl-benzamide] |
| 0.0509 | CSc1cc(C(F)(F)F)cc(C(F)(F)F)c1C(=O)NC(c1ccccc1)C1(N2CCCC2)CC1 (single isomer, unassigned; (-)) [Example 29, (−)-2-Methylsulfanyl-N-[phenyl-(1-pyrrolidin-1-yl-cyclopropyl)-methyl]-4,6-bis-trifluoromethyl-benzamide] |
| 0.047 | CSc1cc(C(F)(F)F)cc(C(F)(F)F)c1C(=O)NC(c1ccccc1)C1(N2CCCC2)CCC1 (single isomer, unassigned; (+)) [Example 30, (+)-2-Methylsulfanyl-N-[phenyl-(1-pyrrolidin-1-yl-cyclobutyl)-methyl]-4,6-bis-trifluoromethyl-benzamide] |
| 0.0312 | O=C(NC(c1ccccc1)C1(N2CCCC2)CCC1)c1ccc(C(F)(F)F)cc1C(F)(F)F (stereo not shown) [Example 15, N-[Phenyl-(1-pyrrolidin-1-yl-cyclobutyl)-methyl]-2,4-bis-trifluoromethyl-benzamide] |
